Some results are limits rather than exact numbers.

In test [1] the target is T1, human TDO (TDO-expressing HEK293 cells) (Homo sapiens, UniProt P48775).
T1 construct: expressed in transfected cells
Briefly: Cell based kynurenine assay, TDO-expressing HEK293 cell clones. The settings on record: TDO-expressing HEK293 cells, 24 hours, geometric mean; read-out: HEK293 TDO Kynurenine GMean IC50 (μM) (Cellular Assay). An outline of the steps: (§1)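 IC50 values come from nonlinear regression of kynurenine reduction in supernatants of human IDO1- or TDO-expressing HEK293 cells incubated 24 h with serially diluted compounds, normalised to cell and media-only controls containing 0.2% DMSO.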

The target of test [2] is T2, Human Indoleamine 2,3-dioxygenase (IDO) (Homo sapiens, UniProt P14902).
T2 construct: His tag (N); made in house; host or cells: E. coli
Briefly: Human IDO enzymatic assay (kynurenine level). The test is classed as biochemical. The settings on record: 6 nM IDO, 10 μM L-Trp; geometric mean; read-out: IDO1 GMean: IC50 (μM) (Biochemical Assay). An outline of the steps: (§2)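 Reactions were stopped with TCA, converting N-formylkynurenine to kynurenine for quantitation, with IC50 by nonlinear regression. IDO: 6 nM enzyme, 10 μM L-Trp, 20 min RT. TDO: 1 nM enzyme, 350 μM L-Trp, 70 min RT, both in pH 6.5 buffer.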

Test [3] addresses T3, human IDO (IDO1-expressing HEK293 cells) (Homo sapiens, UniProt P14902).
T3 construct: expressed in transfected cells
Briefly: Cell based kynurenine assay, IDO1-expressing HEK293 cell clones. Particulars: IDO1-expressing HEK293 cells, 24 hours, geometric mean; read-out: HEK293 IDO1 Kynurenine GMean IC50 (μM) (Cellular Assay). A digest of the protocol: as §1

In test [4] the target is T4, Human Tryptophan 2,3-dioxygenase (TDO) (Homo sapiens, UniProt P48775).
T4 construct: His tag (N); made in house; host or cells: E. coli
Description: Human TDO enzymatic assay (kynurenine level). It counts as biochemical. The settings on record: 1 nM TDO, 350 μM L-Trp; geometric mean; read-out: TDO GMean: IC50 (μM) (Biochemical Assay). An outline of the steps: as §2

T4 sequence (P48775 whole entry): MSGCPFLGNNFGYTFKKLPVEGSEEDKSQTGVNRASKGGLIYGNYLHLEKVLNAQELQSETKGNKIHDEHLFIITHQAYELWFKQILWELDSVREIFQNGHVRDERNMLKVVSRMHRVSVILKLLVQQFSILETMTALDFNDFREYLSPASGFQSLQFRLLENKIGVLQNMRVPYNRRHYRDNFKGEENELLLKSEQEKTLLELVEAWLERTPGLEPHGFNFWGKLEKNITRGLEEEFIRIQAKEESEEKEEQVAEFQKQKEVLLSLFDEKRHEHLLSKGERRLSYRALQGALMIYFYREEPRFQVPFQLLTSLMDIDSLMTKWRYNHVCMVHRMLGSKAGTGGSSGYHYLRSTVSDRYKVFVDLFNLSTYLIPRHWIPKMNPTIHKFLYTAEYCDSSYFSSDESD
T1 sequence (P48775 whole entry): as above
T3 sequence (P14902 whole entry): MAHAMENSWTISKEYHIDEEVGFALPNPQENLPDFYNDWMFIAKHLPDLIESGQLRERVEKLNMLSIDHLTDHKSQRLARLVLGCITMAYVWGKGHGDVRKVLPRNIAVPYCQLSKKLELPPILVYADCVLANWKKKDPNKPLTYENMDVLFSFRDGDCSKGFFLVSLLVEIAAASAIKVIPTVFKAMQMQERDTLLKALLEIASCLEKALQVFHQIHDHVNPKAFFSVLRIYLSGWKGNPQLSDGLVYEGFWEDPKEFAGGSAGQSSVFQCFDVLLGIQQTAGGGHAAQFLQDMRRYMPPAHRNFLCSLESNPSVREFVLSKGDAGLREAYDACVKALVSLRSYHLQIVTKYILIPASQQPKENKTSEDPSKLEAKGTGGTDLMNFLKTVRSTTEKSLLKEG
T2 sequence (P14902 whole entry): as above

By IC50 is commonly meant the concentration needed to halve the response being measured. Consider `C[C@@H](NC(=O)N1CCC(C(C)(C)C(O)c2cc(Cl)cc3cn[nH]c23)CC1)c1ccccn1` (stereo partly drawn) [Compound P-0479, 4-(1-(5-chloro-1H-indazol-7-yl)-1-hydroxy-2-methylpropan-2-yl)-N-((R)-1-(pyridin-2-yl)ethyl)piperidine-1-carboxamide], for which the IC50 in test [1], in test [2], in test [3] and in test [4] was 0.0001 to 10 µM throughout.

As to `O=C(CC1CCOCC1)N1CCC(C(F)(F)C(O)c2cc(Cl)cc3cn[nH]c23)CC1` (centres unmarked) [Compound P-0480, 1-(4-(2-(5-chloro-1H-indazol-7-yl)-1,1-difluoro-2-hydroxyethyl)piperidin-1-yl)-2-(tetrahydro-2H-pyran-4-yl)ethan-1-one], the concentration for half-maximal inhibition (IC50) in test [1], in test [2], in test [3] and in test [4] was 0.0001 to 10 µM throughout.

`O=C(CC1CCS(=O)(=O)CC1)N1CCC(C(F)(F)C(O)c2cc(Cl)cc3cn[nH]c23)CC1` (centres unmarked) [Compound P-0481, 1-(4-(2-(5-chloro-1H-indazol-7-yl)-1,1-difluoro-2-hydroxyethyl)piperidin-1-yl)-2-(1,1-dioxidotetrahydro-2H-thiopyran-4-yl)ethan-1-one]: the IC50 is over 10 µM in test [1], 0.0001 to 10 µM in test [2], 0.0001 to 10 µM in test [3] and 0.0001 to 10 µM in test [4].

Consider `O=C(NCC1COC1)N1CCC(C(F)(F)C(O)c2cc(Cl)cc3cn[nH]c23)CC1` (centres unmarked) [Compound P-0482, 4-(2-(5-chloro-1H-indazol-7-yl)-1,1-difluoro-2-hydroxyethyl)-N-(oxetan-3-ylmethyl)piperidine-1-carboxamide], for which the IC50 in test [1], in test [2], in test [3] and in test [4] was 0.0001 to 10 µM each time.

With `N#Cc1ccc(NC(=O)N2CCC(C(F)(F)C(O)c3cc(Cl)cc4cn[nH]c34)CC2)cc1` (centres unmarked) [Compound P-0483, 4-(2-(5-chloro-1H-indazol-7-yl)-1,1-difluoro-2-hydroxyethyl)-N-(4-cyanophenyl) piperidine-1-carboxamide], the IC50 in test [1], in test [2], in test [3] and in test [4] was 0.0001 to 10 µM each time.

As for `O=C(Nc1ccc(Cl)cc1)N1CCC(C(F)(F)C(O)c2cc(Cl)cc3cn[nH]c23)CC1` (centres unmarked) [Compound P-0484, 4-(2-(5-chloro-1H-indazol-7-yl)-1,1-difluoro-2-hydroxyethyl)-N-(4-chlorophenyl) piperidine-1-carboxamide], the IC50 in test [1], in test [2], in test [3] and in test [4] was 0.0001 to 10 µM in each case.

Take `O=C(CN1CCS(=O)(=O)CC1)N1CCC(C(F)(F)C(O)c2cc(Cl)cc3cn[nH]c23)CC1` (centres unmarked) [Compound P-0485, 1-(4-(2-(5-chloro-1H-indazol-7-yl)-1,1-difluoro-2-hydroxyethyl)piperidin-1-yl)-2-(1,1-dioxidothiomorpholino) ethan-1-one]: the IC50 in test [1] was over 10 µM; in test [2] it was 0.0001 to 10 µM; in test [3] it was 0.0001 to 10 µM; in test [4] it was 0.0001 to 10 µM.

With `CC(C)(C1CCN(C(=O)CN2CCCS2(=O)=O)CC1)C(O)c1cc(Cl)cc2cn[nH]c12` (centres unmarked) [Compound P-0486, 1-(4-(1-(5-chloro-1H-indazol-7-yl)-1-hydroxy-2-methylpropan-2-yl)piperidin-1-yl)-2-(1,1-dioxidoisothiazolidin-2-yl)ethan-1-one], the half-maximal inhibitory concentration (IC50) in test [1], in test [2], in test [3] and in test [4] was 0.0001 to 10 µM in each case.

On to `CC(C)(C1CCN(C(=O)CN2CCS(=O)(=O)CC2)CC1)C(O)c1cc(Cl)cc2cn[nH]c12` (centres unmarked) [Compound P-0487, 1-(4-(1-(5-chloro-1H-indazol-7-yl)-1-hydroxy-2-methylpropan-2-yl)piperidin-1-yl)-2-(1,1-dioxidothiomorpholino) ethan-1-one], for which the IC50 in test [1], in test [2], in test [3] and in test [4] was 0.0001 to 10 µM each time.

In the case of `O=C(Nc1cccc(Cl)c1)N1CCC(C(F)(F)C(O)c2cc(Cl)cc3cn[nH]c23)CC1` (centres unmarked) [Compound P-0488, 4-(2-(5-chloro-1H-indazol-7-yl)-1,1-difluoro-2-hydroxyethyl)-N-(3-chlorophenyl) piperidine-1-carboxamide], the concentration for half-maximal inhibition (IC50) in test [1], in test [2], in test [3] and in test [4] was 0.0001 to 10 µM each time.

As for `O=C(CN1CCCS1(=O)=O)N1CCC(C(F)(F)C(O)c2cc(Cl)cc3cn[nH]c23)CC1` (centres unmarked) [Compound P-0489, 1-(4-(2-(5-chloro-1H-indazol-7-yl)-1,1-difluoro-2-hydroxyethyl)piperidin-1-yl)-2-(1,1-dioxidoisothiazolidin-2-yl)ethan-1-one], the IC50 in test [1], in test [2], in test [3] and in test [4] was 0.0001 to 10 µM each time.

Take `CC(C)(C)OC(=O)N1CCC(C(F)(F)C(O)c2c3c(cc4cn[nH]c24)CC3)CC1` (centres unmarked) [Compound P-0490, tert-butyl 4-(2-(5,6-dihydro-1H-cyclobuta[f]indazol-7-yl)-1,1-difluoro-2-hydroxyethyl) piperidine-1-carboxylate]: the IC50 in test [1], in test [2], in test [3] and in test [4] was 0.0001 to 10 µM in each case.

Regarding `CN1CCN(Cc2ccc(NC(=O)N3CCC(C(C)(C)C(O)c4cc(Cl)cc5cn[nH]c45)CC3)cc2)CC1` (centres unmarked) [Compound P-0491, 4-(1-(5-chloro-1H-indazol-7-yl)-1-hydroxy-2-methylpropan-2-yl)-N-(4-((4-methylpiperazin-1-yl)methyl)phenyl) piperidine-1-carboxamide], the IC50 in test [1], in test [2], in test [3] and in test [4] was 0.0001 to 10 µM throughout.

Take `CC(C)(C1CCN(C(=O)NCCN2CCCS2(=O)=O)CC1)C(O)c1cc(Cl)cc2cn[nH]c12` (centres unmarked) [Compound P-0492, 4-(1-(5-chloro-1H-indazol-7-yl)-1-hydroxy-2-methylpropan-2-yl)-N-(2-(1,1-dioxidoisothiazolidin-2-yl)ethyl)piperidine-1-carboxamide]: the IC50 in test [1], in test [2], in test [3] and in test [4] was 0.0001 to 10 µM in each case.

As for `CC(C)(C1CCN(C(=O)NCCNS(C)(=O)=O)CC1)C(O)c1cc(Cl)cc2cn[nH]c12` (centres unmarked) [Compound P-0493, 4-(1-(5-chloro-1H-indazol-7-yl)-1-hydroxy-2-methylpropan-2-yl)-N-(2-(methylsulfonamido)ethyl)piperidine-1-carboxamide], the IC50 in test [1], in test [2], in test [3] and in test [4] was 0.0001 to 10 µM each time.

As for `O=C(Cc1ccc(Cl)cc1)N1CCC(C(F)(F)C(O)c2cc(Cl)cc3cn[nH]c23)CC1` (centres unmarked) [Compound P-0494, 1-(4-(2-(5-chloro-1H-indazol-7-yl)-1,1-difluoro-2-hydroxyethyl)piperidin-1-yl)-2-(4-chlorophenyl)ethan-1-one], the IC50 in test [1], in test [2], in test [3] and in test [4] was 0.0001 to 10 µM in each case.

For the compound `O=C(Cc1ccc(Cl)nc1)N1CCC(C(F)(F)C(O)c2cc(Cl)cc3cn[nH]c23)CC1` (centres unmarked) [Compound P-0495, 1-(4-(2-(5-chloro-1H-indazol-7-yl)-1,1-difluoro-2-hydroxyethyl)piperidin-1-y1)-2-(6-chloropyridin-3-yl)ethan-1-one], the IC50 in test [1], in test [2], in test [3] and in test [4] was 0.0001 to 10 µM each time.

With `COc1ccc(CC(=O)N2CCC(C(F)(F)C(O)c3cc(Cl)cc4cn[nH]c34)CC2)cc1` (centres unmarked) [Compound P-0496, 1-(4-(2-(5-chloro-1H-indazol-7-yl)-1,1-difluoro-2-hydroxyethyl)piperidin-1-yl)-2-(4-methoxyphenyl) ethan-1-one], the IC50 in test [1], in test [2], in test [3] and in test [4] was 0.0001 to 10 µM in each case.

As for `CC(C)(C1CCN(C(=O)CN2CCS(=O)(=O)CC2)CC1)[C@H](O)c1cc(Cl)cc2cn[nH]c12` [Compound P-0497, (S)-1-(4-(1-(5-chloro-1H-indazol-7-yl)-1-hydroxy-2-methylpropan-2-yl)piperidin-l-yl)-2-(1,1-dioxidothiomorpholino) ethan-1-one], the IC50 in test [1], in test [2], in test [3] and in test [4] was 0.0001 to 10 µM each time.

Consider `CC(C)(C1CCN(C(=O)C2CCC2)CC1)[C@H](O)c1cc(Cl)cc2cn[nH]c12` [Compound P-0498, (S)-(4-(1-(5-chloro-1H-indazol-7-yl)-1-hydroxy-2-methylpropan-2-yl)piperidin-1-yl)(cyclobutyl)methanone], for which the IC50 in test [1], in test [2], in test [3] and in test [4] was 0.0001 to 10 µM each time.
